# Measurements as given in ChEMBL document CHEMBL1135309, “Tryptophanyl phosphoramidates as prodrugs of synadenol and its E-isomer: synthesis and biological activity” (2002).
# Key:
# [1] = Antiviral activity against HCMV (AD 169) in HFF cells against cytopathic effect inhibition assay; 1.0/303
# [2] = Ratio of antiviral activity of HSV-1 to the ratio of cytotoxicity of Vero (EC50/CC50) against cytopathic effect inhibition assay in CEM cells; 28/>100; type: functional
# [3] = Ratio of antiviral activity of VZV to the ratio of cytotoxicity of HFF (EC50/CC50) against cytopathic effect inhibition assay; 2.5/368; type: functional
# [4] = Ratio of antiviral activity of HSV-2 to the ratio of cytotoxicity of Vero (EC50/CC50) against cytopathic effect inhibition assay in CEM cells; 59/>100; type: functional
# [5] = Antiviral activity against HIV-1 in MT-2 cells (EC50) against cytopathic effect inhibition assay; 0.75/32
# [6] = Ratio of antiviral activity of HSV-1 to the ratio of cytotoxicity of BSC-1 (EC50/CC50) against KB cells; 26/78; type: functional
# [7] = Ratio of antiviral activity of HSV-2 to the ratio of cytotoxicity of HFF (EC50/CC50) against cytopathic effect inhibition assay; 80/433; type: functional
# [8] = Antiviral activity against HCMV (Towne) in HFF cells by plaque reduction assay
# [9] = Antiviral activity against EBV in Daudi cells (EC50) against viral capsid antigen immunofluorescence assay (VCA-IF); 3.2/368
# [10] = Ratio of antiviral activity of HSV-1 to the ratio of cytotoxicity of HFF (EC50/CC50) against cytopathic effect inhibition assay; >92/433; type: functional
# [11] = Antiviral activity against HBV in 2.2.15 cells (EC50) in HBV-DNA inhibition assay against CEM cells; 2/>100
# [12] = Ratio of antiviral activity of VZV to the ratio of cytotoxicity of HFF (EC50/CC50) against cytopathic effect inhibition assay; 5.0/111; type: functional
# [13] = Antiviral activity against HCMV (AD 169) in HFF cells assessed by cytopathic effect inhibition assay; 5.2/90
# HCT-15 [14] = assay: Antitumor activity against human HCT15 to multiple drug-resistant human colon tumor at 500 ug/disk in disk diffusion assay; Value ranges from 300-400; type: functional
# [15] = Ratio of antiviral activity of HSV-1 to the ratio of cytotoxicity of BSC-1 (EC50/CC50) against KB cells; 15/>100; type: functional
# [16] = Ratio of antiviral activity of HSV-1 to the ratio of cytotoxicity of HFF (EC50/CC50) against cytopathic effect inhibition assay; >184/>184; type: functional
# [17] = Ratio of antiviral activity of HSV-2 to the ratio of cytotoxicity of HFF (EC50/CC50) against cytopathic effect inhibition assay; >184/>184; type: functional
# L1210 = assay: Antitumor activity against leukemia L1210 at 500 ug/disk in disk diffusion assay; type: functional, Mus musculus
# [18] = Antitumor activity against normal cells (fibroblasts) at 500 ug/disk in disk diffusion assay; Value ranges from 0-100; type: functional
# [19] = Ratio of antiviral activity of HSV-1 to the ratio of cytotoxicity of Vero (EC50/CC50) against cytopathic effect inhibition assay in CEM cells; 31/91; type: functional
# [20] = Antiviral activity of HCMV (Towne)in HFF cells by plaque reduction assay
# [21] = Antiviral activity against EBV in Daudi cells against viral capsid antigen immunofluorescence assay (VCA-IF)
# [22] = Antiviral activity against HBV in 2.2.15 cells in HBV-DNA inhibition assay
# [23] = Ratio of antiviral activity of HSV-2 to the ratio of cytotoxicity of Vero (EC50/CC50) against cytopathic effect inhibition assay in CEM cells; 40/91; type: functional
# [24] = Ratio of antiviral activity of HIV-1to the ratio of cytotoxicity of MT-2 (EC50/CC50) against cytopathic effect inhibition assay; 1/10; type: functional
# [25] = Ratio of antiviral activity of HBV to the ratio of cytotoxicity of 2.2.15 (EC50/CC50) in HBV-DNA inhibition assay against CEM cells; 0.01/0.3; type: functional, CCRF-CEM
# [26] = Antiviral activity against HIV-1 in MT-2 cells (EC50) against cytopathic effect inhibition assay; 0.003/0.24
# [27] = Ratio of antiviral activity of HSV-1 to the ratio of cytotoxicity of HFF (EC50/CC50) against cytopathic effect inhibition assay; <0.07/18; type: functional
# [28] = Antiviral activity against HCMV (AD 169) in HFF cells (EC50) against cytopathic effect inhibition assay
# [29] = Ratio of antiviral activity of VZV to the ratio of cytotoxicity of HFF (EC50/CC50) against cytopathic effect inhibition assay; 7.6/101; type: functional
# [30] = Ratio of antiviral activity of HSV-2 to the ratio of cytotoxicity of HFF (EC50/CC50) against cytopathic effect inhibition assay; 1.1/18; type: functional
# [31] = Antiviral activity against HCMV (Towne) in HFF cells by plaque reduction assay; remark: listed apart in the source
# HCT-15 [32] = assay: Antitumor activity against human HCT15 to multiple drug-resistant human colon tumor at 500 ug/disk in disk diffusion assay; type: functional
# [33] = Antiviral activity against EBV in Daudi cells (EC50) against viral capsid antigen immunofluorescence assay (VCA-IF); 1.0/>108
# [34] = Ratio of antiviral activity of HSV-1 to the ratio of cytotoxicity of BSC-1 (EC50/CC50) against KB cells; 2.5/0.5; type: functional
# [35] = Ratio of antiviral activity of HSV-1 to the ratio of cytotoxicity of Vero (EC50/CC50) against cytopathic effect inhibition assay in CEM cells; >1/<10; type: functional
smiles,measurement,setting,value
Nc1ncnc2c1ncn2/C=C1/CC1CO (stereo unspecified),EC50,[1],1000 nM
same,Ratio,[2],28
same,Ratio,[3],2.5
same,Ratio,[4],59
same,EC50,[5],750 nM
same,Ratio,[6],26
same,Ratio,[7],80
same,EC50,[8],2100 nM
same,EC50,[9],3200 nM
same,Ratio,[10],>92
same,EC50,[11],2000 nM
COC(=O)C(Cc1c[nH]c2ccccc12)NP(=O)(O)OCC1C/C1=C/n1cnc2c(N)ncnc21 (stereo unspecified),Ratio,[12],5
same,EC50,[13],5200 nM
same,Activity,HCT-15 [14],300 zone units
same,Ratio,[15],15
same,Ratio,[16],>184
same,Ratio,[17],>184
same,Activity,L1210,0 zone units
same,Activity,[18],0 zone units
same,Ratio,[19],31
same,EC50,[20],1500 nM
same,EC50,[21],> 18000 nM
same,EC50,[22],490 nM
same,Ratio,[23],40
same,Ratio,[24],1
COC(=O)C(C)NP(=O)(OCC1C/C1=C/n1cnc2c(N)ncnc21)Oc1ccccc1 (stereo unspecified),Ratio,[25],0.01
same,EC50,[26],3 nM
same,Ratio,[27],<0.07
same,EC50,[28],1300 nM
same,Ratio,[29],7.6
same,Ratio,[30],1.1
same,EC50,[31],140 nM
same,Activity,HCT-15 [32],200 ug disk-1
same,EC50,[33],1000 nM
same,Ratio,[34],2.5
same,Ratio,[35],>1
